Where two headings read alike, the source gives them in different places.
What was measured:
[1] = Pharmacokinetics in SD Rats; assay type: in vivo, rat
Experimental: 3. Pharmacokinetics of the Nectin-4/CD137 Heterotandem BCY11863 in SD Rats
Male SD Rats were dosed with the Nectin-4/CD137 heterotandem BCY11863 formulated in 25 mM Histidine HCl, 10% sucrose pH 7 by IV bolus, IV infusion (15 minutes) or subcutaneously. Serial bleeding (about 80 μL blood/time point) was performed via submandibular or saphenous vein at each time point. All blood samples were immediately transferred into prechilled microcentrifuge tubes containing 2 μL K2-EDTA (0.5M) as anti-coagulant and placed on wet ice. Blood samples were immediately processed for plasma by centrifugation at approximately 4° C., 3000 g. The precipitant including internal standard was immediately added into the plasma, mixed well and centrifuged at 12,000 rpm, 4° C. for 10 minutes. The supernatant was transferred into pre-labeled polypropylene microcentrifuge tubes, and then quick-frozen over dry ice. The samples were stored at […] or below as needed until analysis. 7.5 μL of the supernatant samples were directly injected for LC-MS/MS analysis using an Orbitrap Q Exactive in positive ion mode to determine the concentrations of analyte. Plasma concentration versus time data were analyzed by non-compartmental approaches using the Phoenix WinNonlin 6.3 software program. C0, CI, Vdss, T½, AUC(0-last), AUC(0-inf), MRT(0-last), MRT(0-inf) and graphs of plasma concentration versus time profile were reported.

[2] = tested on: 5484 full-length human plasma membrane proteins and secreted proteins expressed in HEK293 cells; experiment: Retrogenix cell microarray off-target screening; assay type: binding; details: 1 μM test peptide
Experimental: Retrogenix microarray screening: Retrogenix's cell microarray technology was used to screen for specific off-target binding interactions of a biotinylated BCY11863 known as BCY13582.
Under these conditions, the test peptide was screened for binding against human HEK293 cells, individually expressing 5484 full-length human plasma membrane proteins and secreted proteins.
Each primary hit was re-expressed, along with two control receptors (TGFBR2 and EGFR), and re-tested with 1 μM BCY13582 test peptide, 1 μM BCY13582 test peptide in the presence of 100 μM BCY11863, and other positive and negative control treatments (FIG. 4). […] These were untethered and tethered forms of Nectin-4, and CD137—the primary targets.

[3] = molecular target: T1, human CD137 (Homo sapiens, UniProt Q07011); experiment: SPR, biotinylated analogue captured on chip, binding to CD137 extracellular domain
T1 construct: extracellular domain: SPR data

[4] = molecular target: T2, cyno CD137 (Macaca fascicularis, UniProt A9YYE7); experiment: as above
T2 construct: extracellular domain: SPR data

[5] = in vivo, SD rat plasma, analyte after 100 mg/kg IV BCY11863
[6] = in vivo, SD rat plasma, analyte after 100 mg/kg IV BCY11863, read-out: T1/2 (converted)

T2 sequence (A9YYE7 24-186): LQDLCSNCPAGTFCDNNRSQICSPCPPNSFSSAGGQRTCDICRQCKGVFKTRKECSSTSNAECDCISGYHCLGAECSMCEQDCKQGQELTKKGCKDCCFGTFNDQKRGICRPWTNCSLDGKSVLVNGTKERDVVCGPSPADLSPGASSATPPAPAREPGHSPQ
T1 sequence (Q07011 24-186 limits assumed): as the sequence (A9YYE7 24-186) above, with L4P, S19N, K50R, I66T, S67P, Y69F, E75G, A149V counted along it

Row | Compound | Conversion to BCY14602 ([1]; SD rats, IV 100 mg/kg, first 24 h of the study) | Fraction metabolized to BCY15155 ([1]; SD rats, IV administration, 100 mg/kg) [%] | AUC [1, 5] [ng·h/mL] | Cmax [1, 5] [µg/mL] | half-life [1, 6] [h] | clearance ([1]; in vivo, SD rat, 100 mg/kg IV BCY11863, read-out: Clp) [mL/min/kg] | half-life ([1]; rat, in vivo, SD rats, 3.2 mg/kg IV Inf (15 min), read-out: T½ (converted)) [h] | half-life ([1]; rat, in vivo, SD rats, 6.3 mg/kg Sc, read-out: T½ (converted)) [h] | Specific off-target interactions [2] | Kd [3] [nM] | Kd [4] [nM]
1 | CCCC[C@@H]1NC(=O)[C@H](Cc2ccc(O)cc2)NC(=O)[C@@H]2CCCN2C(=O)[C@H](CC(=O)O)NC(=O)[C@H](C)NC(=O)[C@H](Cc2ccccc2)NC(=O)[C@@H]2CSCCC(=O)N3CN(CN(C3)C(=O)CCSC[C@@H](C(=O)N[C@@H](C)C(N)=O)NC1=O)C(=O)CCSC[C@H](NC(C)=O)C(=O)N[C@@H](CC(C)(C)C)C(=O)N1CCC[C@H]1C(=O)N[C@@H](CCC(=O)O)C(=O)N[C@H](CCCCNC(=O)CCc1cn(CCOCCOCCOCCN(CCOCCOCCOCCC(=O)N[C@H]3CSCCC(=O)N4CN5CN(C4)C(=O)CCSC[C@H](NC(=O)[C@@H](CC(=O)O)NC(=O)[C@H](Cc4cccc6ccccc46)NC(=O)[C@@H]4CCCN4C3=O)C(=O)N[C@@H](CCSC)C(=O)N[C@@H](CCCCNC(=N)N)C(=O)N[C@@H](CC(=O)O)C(=O)N[C@@H](Cc3c[nH]c4ccccc34)C(=O)N[C@@H](CO)C(=O)N[C@@H]([C@@H](C)O)C(=O)N3CCC[C@H]3C(=O)N3C[C@H](O)C[C@H]3C(=O)N[C@@H](Cc3c[nH]c4ccccc34)C(=O)N[C@H](C(N)=O)CSCCC5=O)CCOCCOCCOCCn3cc(CCC(=O)NCCCC[C@H]4NC(=O)[C@H](CCC(=O)O)NC(=O)[C@@H]5CCCN5C(=O)[C@H](CC(C)(C)C)NC(=O)[C@@H](NC(C)=O)CSCCC(=O)N5CN6CN(C5)C(=O)CCSC[C@H](NC(=O)[C@H](Cc5ccc(O)cc5)NC(=O)[C@@H]5CCCN5C4=O)C(=O)N[C@@H](Cc4ccccc4)C(=O)N[C@@H](C)C(=O)N[C@@H](CC(=O)O)C(=O)N4CCC[C@H]4C(=O)N[C@@H](Cc4ccc(O)cc4)C(=O)N[C@@H](CCCC)C(=O)N[C@H](C(=O)N[C@@H](C)C(N)=O)CSCCC6=O)nn3)nn1)C(=O)N1CCC[C@H]1C(=O)N[C@@H](Cc1ccc(O)cc1)C(=O)N2 [BCY11863] | No significant conversion to BCY14602 | < 1 | 130000 | 280 | 5.4 | 13 | 3.1 | 2.5 | – | – | –
2 | CCCC[C@@H]1NC(=O)[C@H](Cc2ccc(O)cc2)NC(=O)[C@@H]2CCCN2C(=O)[C@H](CC(=O)O)NC(=O)[C@H](C)NC(=O)[C@H](Cc2ccccc2)NC(=O)[C@@H]2CSCCC(=O)N3CN(CN(C3)C(=O)CCSC[C@@H](C(=O)N[C@@H](C)C(N)=O)NC1=O)C(=O)CCSC[C@H](NC(C)=O)C(=O)N[C@@H](CC(C)(C)C)C(=O)N1CCC[C@H]1C(=O)N[C@@H](CCC(=O)O)C(=O)N[C@H](CCCCNC(=O)CCc1cn(CCOCCOCCOCCN(CCOCCOCCOCCC(=O)N[C@H]3CSCCC(=O)N4CN5CN(C4)C(=O)CCSC[C@H](NC(=O)[C@@H](CC(=O)O)NC(=O)[C@H](Cc4cccc6ccccc46)NC(=O)[C@@H]4CCCN4C3=O)C(=O)N[C@@H](CCSC)C(=O)N[C@@H](CCCCNC(=N)N)C(=O)N[C@@H](CC(=O)O)C(=O)N[C@@H](Cc3c[nH]c4ccccc34)C(=O)N[C@@H](CO)C(=O)N[C@@H]([C@@H](C)O)C(=O)N3CCC[C@H]3C(=O)N3C[C@H](O)C[C@H]3C(=O)N[C@@H](Cc3c[nH]c4ccccc34)C(=O)N[C@H](C(N)=O)CSCCC5=O)CCOCCOCCOCCn3cc(CCC(=O)NCCCC[C@H]4NC(=O)[C@H](CCC(=O)O)NC(=O)[C@@H]5CCCN5C(=O)[C@H](CC(C)(C)C)NC(=O)[C@@H](NC(C)=O)CSCCC(=O)N5CN6CN(C5)C(=O)CCSC[C@H](NC(=O)[C@H](Cc5ccc(O)cc5)NC(=O)[C@@H]5CCCN5C4=O)C(=O)N[C@@H](Cc4ccccc4)C(=O)N[C@@H](C)C(=O)N[C@@H](CC(=O)O)C(=O)N4CCC[C@H]4C(=O)N[C@@H](Cc4ccc(O)cc4)C(=O)N[C@@H](CCCC)C(=O)N[C@H](C(=O)N[C@@H](CCCCNC(=O)CCOCCOCCOCCOCCOCCOCCOCCOCCOCCOCCOCCOCCNC(=O)CCCC[C@@H]4SC[C@@H]5NC(=O)N[C@@H]54)C(N)=O)CSCCC6=O)nn3)nn1)C(=O)N1CCC[C@H]1C(=O)N[C@@H](Cc1ccc(O)cc1)C(=O)N2 [BCY13582] | – | – | – | – | – | – | – | – | No specific off-target interactions were identified | 8.4 ± 4.2 | 4.23
3 | CCCC[C@@H]1NC(=O)[C@H](Cc2ccc(O)cc2)NC(=O)[C@@H]2CCCN2C(=O)[C@H](CC(=O)O)NC(=O)[C@H](C)NC(=O)[C@H](Cc2ccccc2)NC(=O)[C@@H]2CSCCC(=O)N3CN(CN(C3)C(=O)CCSC[C@@H](C(=O)N[C@@H](C)C(N)=O)NC1=O)C(=O)CCSC[C@H](NC(C)=O)C(=O)N[C@@H](CC(C)(C)C)C(=O)N1CCC[C@H]1C(=O)N[C@@H](CCC(=O)O)C(=O)N[C@H](CCCCNC(=O)CCc1cn(CCOCCOCCOCCN(CCOCCOCCOCCC(=O)N[C@H]3CSCCC(=O)N4CN5CN(C4)C(=O)CCSC[C@H](NC(=O)[C@@H](CC(=O)O)NC(=O)[C@H](Cc4cccc6ccccc46)NC(=O)[C@@H]4CCCN4C3=O)C(=O)N[C@@H](CCSC)C(=O)N[C@@H](CCCCNC(=N)N)C(=O)N[C@@H](CC(=O)O)C(=O)N[C@@H](Cc3c[nH]c4ccccc34)C(=O)N[C@@H](CO)C(=O)N[C@@H]([C@@H](C)O)C(=O)N3CCC[C@H]3C(=O)N3C[C@H](O)C[C@H]3C(=O)N[C@@H](Cc3c[nH]c4ccccc34)C(=O)N[C@H](C(N)=O)CSCCC5=O)CCOCCOCCOCCn3cc(CCC(=O)NCCCC[C@H]4NC(=O)[C@H](CCC(=O)O)NC(=O)[C@@H]5CCCN5C(=O)[C@H](CC(C)(C)C)NC(=O)[C@@H](N)CSCCC(=O)N5CN6CN(C5)C(=O)CCSC[C@H](NC(=O)[C@H](Cc5ccc(O)cc5)NC(=O)[C@@H]5CCCN5C4=O)C(=O)N[C@@H](Cc4ccccc4)C(=O)N[C@@H](C)C(=O)N[C@@H](CC(=O)O)C(=O)N4CCC[C@H]4C(=O)N[C@@H](Cc4ccc(O)cc4)C(=O)N[C@@H](CCCC)C(=O)N[C@H](C(=O)N[C@@H](C)C(N)=O)CSCCC6=O)nn3)nn1)C(=O)N1CCC[C@H]1C(=O)N[C@@H](Cc1ccc(O)cc1)C(=O)N2 [BCY15155] | – | – | 1300 | 2.85 | 3.1 | – | – | – | – | – | –

— patent publication US11306123B2, “Heterotandem bicyclic peptide complex” (BicycleTx Limited, priority 2019, dated 2022)
